Tests used:
Assay type in all cases: functional
[1] = system: SNB-78; test: Cytotoxicity against human SNB78 cells; conditions: read-out: Log10LC50 (converted)
[2] = system: A549; test: Cytotoxicity against human A549 cells; conditions: read-out: Log10LC50 (converted)
[3] = system: SW-620; test: Cytotoxicity against human SW620 cells; conditions: read-out: Log10LC50 (converted)
[4] = system: DMS-273; test: Cytotoxicity against human DMS273 cells; conditions: read-out: Log10LC50 (converted)
[5] = system: NCI-H460; test: Cytotoxicity against human NCI-H460 cells; conditions: read-out: Log10LC50 (converted)
[6] = system: SNB-19; test: Cytotoxicity against human SNB19 cells; conditions: read-out: Log10LC50 (converted)
[7] = system: M19-MEL; test: Cytotoxicity against human M19-MEL cells; conditions: read-out: Log10LC50 (converted)
[8] = system: OVCAR-4; test: Cytotoxicity against human OVCAR4 cells; conditions: read-out: Log10LC50 (converted)
[9] = system: COLO 205; test: Cytotoxicity against human COLO205 cells; conditions: read-out: Log10LC50 (converted)
[10] = system: U-251; test: Cytotoxicity against human U251 cells; conditions: read-out: Log10LC50 (converted)
[11] = system: EKVX; test: Cytotoxicity against human EKVX cells; conditions: read-out: Log10LC50 (converted)
[12] = system: SF-268; test: Cytotoxicity against human SF268 cells; conditions: read-out: Log10LC50 (converted)
[13] = system: HCT-15; test: Cytotoxicity against human HCT15 cells; conditions: read-out: Log10LC50 (converted)
[14] = system: HCC 2998; test: Cytotoxicity against human HCC2998 cells; conditions: read-out: Log10LC50 (converted)
[15] = system: UACC-62; test: Cytotoxicity against human UACC62 cells; conditions: read-out: Log10LC50 (converted)
[16] = system: HOP-18; test: Cytotoxicity against human HOP18 cells; conditions: read-out: Log10LC50 (converted)
[17] = Cytotoxicity against human LXFL 529L cells; conditions: read-out: Log10LC50 (converted)
[18] = system: Malme-3M; test: Cytotoxicity against human MALME-3M cells; conditions: read-out: Log10LC50 (converted)
[19] = system: SN12C; test: Cytotoxicity against human SN12C cells; conditions: read-out: Log10LC50 (converted)
[20] = system: CCRF-CEM; test: Cytotoxicity against human CCRF-CEM cells; conditions: read-out: Log10LC50 (converted)
[21] = system: SNB-75; test: Cytotoxicity against human SNB75 cells; conditions: read-out: Log10LC50 (converted)
[22] = system: TK-10; test: Cytotoxicity against human TK10 cells; conditions: read-out: Log10LC50 (converted)
[23] = system: KM12; test: Cytotoxicity against human KM12 cells; conditions: read-out: Log10LC50 (converted)
[24] = system: M14; test: Cytotoxicity against human M14 cells; conditions: read-out: Log10LC50 (converted)
[25] = system: XF498; test: Cytotoxicity against human XF498 cells; conditions: read-out: Log10LC50 (converted)
[26] = system: OVCAR-8; test: Cytotoxicity against human OVCAR8 cells; conditions: read-out: Log10LC50 (converted)
[27] = system: HOP-62; test: Cytotoxicity against human HOP62 cells; conditions: read-out: Log10LC50 (converted)
[28] = system: SK-MEL-5; test: Cytotoxicity against human SK-MEL-5 cells; conditions: read-out: Log10LC50 (converted)
[29] = system: DMS-114; test: Cytotoxicity against human DMS114 cells; conditions: read-out: Log10LC50 (converted)
[30] = system: MOLT-4; test: Cytotoxicity against human MOLT4 cells; conditions: read-out: Log10LC50 (converted)
[31] = system: ACHN; test: Cytotoxicity against human ACHN cells; conditions: read-out: Log10LC50 (converted)
[32] = system: A498; test: Cytotoxicity against human A498 cells; conditions: read-out: Log10LC50 (converted)
[33] = Cytotoxicity against human NCI-H322 cells; conditions: read-out: Log10LC50 (converted)
[34] = system: UACC-257; test: Cytotoxicity against human UACC257 cells; conditions: read-out: Log10LC50 (converted)
[35] = system: NCI-H226; test: Cytotoxicity against human NCI-H226 cells; conditions: read-out: Log10LC50 (converted)
[36] = system: SF-539; test: Cytotoxicity against human SF539 cells; conditions: read-out: Log10LC50 (converted)
[37] = system: SF-295; test: Cytotoxicity against human SF295 cells; conditions: read-out: Log10LC50 (converted)
[38] = system: HT-29; test: Cytotoxicity against human HT-29 cells; conditions: read-out: Log10LC50 (converted)
[39] = system: OVCAR-5; test: Cytotoxicity against human OVCAR5 cells; conditions: read-out: Log10LC50 (converted)
[40] = system: UO-31; test: Cytotoxicity against human UO31 cells; conditions: read-out: Log10LC50 (converted)
[41] = system: RPMI-8226; test: Cytotoxicity against human RPMI8226 cells; conditions: read-out: Log10LC50 (converted)
[42] = system: KM-20L2; test: Cytotoxicity against human KM20L2 cells; conditions: read-out: Log10LC50 (converted)
[43] = system: CAKI-1; test: Cytotoxicity against human Caki1 cells; conditions: read-out: Log10LC50 (converted)
[44] = system: NCI-H23; test: Cytotoxicity against human NCI-H23 cells; conditions: read-out: Log10LC50 (converted)
[45] = system: HL-60(TB); test: Cytotoxicity against human HL-60(TB) cells; conditions: read-out: Log10LC50 (converted)
[46] = system: RXF 393; test: Cytotoxicity against human RXF393 cells; conditions: read-out: Log10LC50 (converted)
[47] = system: LOX IMVI; test: Cytotoxicity against human LOXIMVI cells; conditions: read-out: Log10LC50 (converted)
[48] = system: SK-OV-3; test: Cytotoxicity against human SKOV3 cells; conditions: read-out: Log10LC50 (converted)
[49] = system: DLD-1; test: Cytotoxicity against human DLD1 cells; conditions: read-out: Log10LC50 (converted)
[50] = Cytotoxicity against human 786-O cells; conditions: 786-0, read-out: Log10LC50 (converted)
[51] = system: K562; test: Cytotoxicity against human K562 cells; conditions: read-out: Log10LC50 (converted)
[52] = system: SK-MEL-2; test: Cytotoxicity against human SK-MEL-2 cells; conditions: read-out: Log10LC50 (converted)
[53] = Cytotoxicity against human RXF631 cells; conditions: RXF 631, read-out: Log10LC50 (converted)
[54] = system: NCI-H522; test: Cytotoxicity against human NCI-H522 cells; conditions: read-out: Log10LC50 (converted)
[55] = system: SR; test: Cytotoxicity against human SR cells; conditions: read-out: Log10LC50 (converted)
[56] = system: HCT-116; test: Cytotoxicity against human HCT116 cells; conditions: read-out: Log10LC50 (converted)
[57] = system: IGROV-1; test: Cytotoxicity against human IGROV1 cells; conditions: read-out: Log10LC50 (converted)
[58] = system: OVCAR-3; test: Cytotoxicity against human OVCAR-3 cells; conditions: read-out: Log10LC50 (converted)
[59] = system: SK-MEL-28; test: Cytotoxicity against human SK-MEL-28 cells; conditions: read-out: Log10LC50 (converted)
[60] = system: HOP-92; test: Cytotoxicity against human HOP92 cells; conditions: read-out: Log10LC50 (converted)

COC(=O)[C@]12OC[C@]34[C@H]([C@@H](O)[C@@H]1O)[C@@]1(C)C=C5OC(=O)C=C5[C@@H](C)[C@@H]1C[C@H]3OC(=O)[C@H](OC(C)=O)[C@@H]24 [SERGEOLIDE]
CC50 [1]: 2510 nM | CC50 [2]: 3980 nM | CC50 [3]: 3980 nM | CC50 [4]: 110 nM | CC50 [5]: 457 nM | CC50 [6]: 3980 nM | CC50 [7]: 19.9 nM | CC50 [8]: 44.7 nM | CC50 [9]: 21.9 nM | CC50 [10]: 3980 nM | CC50 [11]: 891 nM | CC50 [12]: 2090 nM | CC50 [13]: 1910 nM | CC50 [14]: 28.8 nM | CC50 [15]: 32.4 nM | CC50 [16]: 3980 nM | CC50 [17]: 67.6 nM | CC50 [18]: 12 nM | CC50 [19]: 3980 nM | CC50 [20]: 3980 nM | CC50 [21]: 38.9 nM | CC50 [22]: 3980 nM | CC50 [23]: 437 nM | CC50 [24]: 20.9 nM | CC50 [25]: 58.9 nM | CC50 [26]: 776 nM | CC50 [27]: 1910 nM | CC50 [28]: 6.61 nM | CC50 [29]: 36.3 nM | CC50 [30]: 3890 nM | CC50 [31]: 3390 nM | CC50 [32]: 57.5 nM | CC50 [33]: 3980 nM | CC50 [34]: 58.9 nM | CC50 [35]: 66.1 nM | CC50 [36]: 25.7 nM | CC50 [37]: 380 nM | CC50 [38]: 3800 nM | CC50 [39]: 3310 nM | CC50 [40]: 2880 nM | CC50 [41]: 3980 nM | CC50 [42]: 3980 nM | CC50 [43]: 3980 nM | CC50 [44]: 70.8 nM | CC50 [45]: 57.5 nM | CC50 [46]: 51.3 nM | CC50 [47]: 288 nM | CC50 [48]: 3980 nM | CC50 [49]: 3240 nM | CC50 [50]: 407 nM | CC50 [51]: 3980 nM | CC50 [52]: 26.9 nM | CC50 [53]: 3720 nM | CC50 [54]: 15.8 nM | CC50 [55]: 3980 nM | CC50 [56]: 129 nM | CC50 [57]: 3980 nM | CC50 [58]: 3980 nM | CC50 [59]: 120 nM | CC50 [60]: 3980 nM

— ChEMBL document CHEMBL1159031, “Cytotoxic quassinoids from Cedronia granatensis” (1992)
